According to patent US20140314904A1, “PRE-SLAUGHTER DIET INCLUDING METHIONINE” (ADISSEO FRANCE S.A.S., priority 2011, published 2014):
Read-outs that look alike come from different tables or passages of the source.

System: slaughter weight pigs
Description: Pigs ([Yorkshire×Swedish Landrace]×Hampshire)(n=10×3 were fed twice daily 2% of their body weight with the respective diets (either low or high methionine diets), water ad libitum.
Two square stimulating electrodes were placed next to one another (not touching) and infront of the recording electrodes, after which the muscle was stimulated at 10, 20, 60, 150 and 200 Hz and the subsequent responses were recorded. Two leads were placed on either side of the abdomen at a position of the last rib to form a “triangle” with the reference electrode and serve to record both respiratory movements as well as sECG signal.
Using electrodes placed either side of the abdomen at the position of the last rib, and a reference electrode placed on the ear, it was possible to create an Einthoven triangle and to record both an ECG (plus heart rate) and respiration rate through diaphragm movements. The recorded signal was assessed in terms of rate and the Q-T interval (time taken for the ventricles to depolarize and repolarize) using Chart analysis software (AD Instruments, Chalgrove, Oxfordshire, UK).
In addition to the sEMG recordings, we were able to obtain non-invasive measurements of the rate of respiration (breaths/min) and the heart rate (bpm) as well as an analysis of the recorded ECG in terms of the time taken for ventricle depolarization and repolarization, the so-called Q-T interval.
Table 1 presents the effects of 1 weeks dietary supplementation with DLM on the respiration and heart rate of 90-100 kg slaughter weight pigs, as well as the Q-T Interval. Values are the mean of a number of pigs, where “n” represents the number of animals per group. (ns) represents a difference between means that was not quite significant.

[1] = post (n = 6), after 1 weeks dietary supplementation
[2] = pre (n = 6), before supplementation

With `CSCCC(N)C(=O)O` (racemic) [DLM, DL-methionine] the “Heart Rate” value [1] was 110.11 bpm, the “Q-T Interval” value [1] was 242.31 ms and the Respiration [1] was 23.53 breaths/min. For the same compound, the “Difference in Q-T Interval: INCREASE by” value (post versus pre, P < 0.01) was 8.5% P < 0.01, the “Difference in Heart Rate: DECREASE by” value (post versus pre, ns) was 9% (ns) and the “Difference in Respiration: DECREASE by” value (post versus pre, ns) was 12% (ns). For the same compound, the “Heart Rate” value [2] was 121.17 bpm, the “Q-T Interval” value [2] was 223.21 ms and the Respiration [2] was 26.83 breaths/min.
